Test results as given in US20230125667A1, “NOVEL TDZD ANALOGS AS AGENTS THAT DELAY, PREVENT, OR REVERSE AGE-ASSOCIATED DISEASES AND AS ANTI-CANCER AND ANTILEUKEMIC AGENTS” (United States Government as represented by the Department …, priority 2020, published 2023).

Columns and labels:
SK-MEL-28 = assay: NCI-60 growth inhibition: SK-MEL-28 (Melanoma); assay type: cell-based, human
MALME-3M = assay: NCI-60 growth inhibition: MALME-3M (Melanoma); assay type: cell-based, human
T-47D = assay: NCI-60 growth inhibition: T-47D (Breast Cancer); assay type: cell-based, human
SW-620 = assay: NCI-60 growth inhibition: SW-620 (Colon Cancer); assay type: cell-based, human
MDA-MB-435 = assay: NCI-60 growth inhibition: MDA-MB-435 (Melanoma); assay type: cell-based, human
A498 = assay: NCI-60 growth inhibition: A498 (Renal Cancer); assay type: cell-based, human
IGROV1 = assay: NCI-60 growth inhibition: IGROV1 (Ovarian Cancer); assay type: cell-based, human
UO-31 = assay: NCI-60 growth inhibition: UO-31 (Renal Cancer); assay type: cell-based, human
OVCAR-8 = assay: NCI-60 growth inhibition: OVCAR-8 (Ovarian Cancer); assay type: cell-based, human
PC-3 = assay: NCI-60 growth inhibition: PC-3 (Prostate Cancer); assay type: cell-based, human
MDA-MB-468 = assay: NCI-60 growth inhibition: MDA-MB-468 (Breast Cancer); assay type: cell-based, human; conditions: MDA-MB-468 (Breast Cancer); read-out: GI50
MCF7 = assay: NCI-60 growth inhibition: MCF7 (Breast Cancer); assay type: cell-based, human
UACC-62 = assay: NCI-60 growth inhibition: UACC-62 (Melanoma); assay type: cell-based, human
RPMI-8226 = assay: NCI-60 growth inhibition: RPMI-8226 (Leukemia); assay type: cell-based, human
[1] = tested on: MV4-11 cell line (myelomonocytic leukemia); conditions: MV4-11 cells; for LD50, 7AAD (μM) 24 h / LD50, Alamar blue (μM) 24 h / LD50, YOPRO (μM) 24 h: MMB-TDZD analogs (Table 2)
NCI-H23 = assay: NCI-60 growth inhibition: NCI-H23 (Non-Small-Cell Lung Cancer); assay type: cell-based, human
HS 578T = assay: NCI-60 growth inhibition: HS 578T (Breast Cancer); assay type: cell-based, human
SK-MEL-5 = assay: NCI-60 growth inhibition: SK-MEL-5 (Melanoma); assay type: cell-based, human
SNB-75 = assay: NCI-60 growth inhibition: SNB-75 (CNS Cancer); assay type: cell-based, human
SF-539 = assay: NCI-60 growth inhibition: SF-539 (CNS Cancer); assay type: cell-based, human
OVCAR-5 = assay: NCI-60 growth inhibition: OVCAR-5 (Ovarian Cancer); assay type: cell-based, human
M14 = assay: NCI-60 growth inhibition: M14 (Melanoma); assay type: cell-based, human
CCRF-CEM = assay: NCI-60 growth inhibition: CCRF-CEM (Leukemia); assay type: cell-based, human
NCI-H460 = assay: NCI-60 growth inhibition: NCI-H460 (Non-Small-Cell Lung Cancer); assay type: cell-based, human
OVCAR-4 = assay: NCI-60 growth inhibition: OVCAR-4 (Ovarian Cancer); assay type: cell-based, human
U251 = assay: NCI-60 growth inhibition: U251 (CNS Cancer); assay type: cell-based, human
OVCAR-3 = assay: NCI-60 growth inhibition: OVCAR-3 (Ovarian Cancer); assay type: cell-based, human
DU-145 = assay: NCI-60 growth inhibition: DU-145 (Prostate Cancer); assay type: cell-based, human
EKVX = assay: NCI-60 growth inhibition: EKVX (Non-Small-Cell Lung Cancer); assay type: cell-based, human
MOLT-4 = assay: NCI-60 growth inhibition: MOLT-4 (Leukemia); assay type: cell-based, human
LOX IMVI = assay: NCI-60 growth inhibition: LOX IMVI (Melanoma); assay type: cell-based, human
SF-268 = assay: NCI-60 growth inhibition: SF-268 (CNS Cancer); assay type: cell-based, human
HCT-116 = assay: NCI-60 growth inhibition: HCT-116 (Colon Cancer); conditions: HCT-116 (Colon Cancer)
ACHN = assay: NCI-60 growth inhibition: ACHN (Renal Cancer); assay type: cell-based, human
UACC-257 = assay: NCI-60 growth inhibition: UACC-257 (Melanoma); assay type: cell-based, human
HT29 = assay: NCI-60 growth inhibition: HT29 (Colon Cancer); assay type: cell-based, human
CAKI-1 = assay: NCI-60 growth inhibition: CAKI-1 (Renal Cancer); assay type: cell-based, human
NCI-H522 = assay: NCI-60 growth inhibition: NCI-H522 (Non-Small-Cell Lung Cancer); conditions: NCI-H522 (Non-Small-Cell Lung Cancer)
SR = assay: NCI-60 growth inhibition: SR (Leukemia); assay type: cell-based, human
COLO 205 = assay: NCI-60 growth inhibition: COLO 205 (Colon Cancer); assay type: cell-based, human
SN12C = assay: NCI-60 growth inhibition: SN12C (Renal Cancer); assay type: cell-based, human
SK-MEL-2 = assay: NCI-60 growth inhibition: SK-MEL-2 (Melanoma); assay type: cell-based, human
HOP-92 = assay: NCI-60 growth inhibition: HOP-92 (Non-Small-Cell Lung Cancer); assay type: cell-based, human
HL-60(TB) = assay: NCI-60 growth inhibition: HL-60(TB) (Leukemia); assay type: cell-based, human; conditions: HL-60(TB) (Leukemia); read-out: GI50
786-0 = assay: NCI-60 growth inhibition: 786-0 (Renal Cancer); assay type: cell-based, human
MDA-MB-231/ATCC = assay: NCI-60 growth inhibition: MDA-MB-231/ATCC (Breast Cancer); assay type: cell-based, human
HCT-15 = assay: NCI-60 growth inhibition: HCT-15 (Colon Cancer); assay type: cell-based, human
TK-10 = assay: NCI-60 growth inhibition: TK-10 (Renal Cancer); assay type: cell-based, human
BT-549 = assay: NCI-60 growth inhibition: BT-549 (Breast Cancer); assay type: cell-based, human
SNB-19 = assay: NCI-60 growth inhibition: SNB-19 (CNS Cancer); assay type: cell-based, human
RXF 393 = assay: NCI-60 growth inhibition: RXF 393 (Renal Cancer); assay type: cell-based, human
K-562 = assay: NCI-60 growth inhibition: K-562 (Leukemia); assay type: cell-based, human

Work on `C=C1C(=O)O[C@H]2[C@H]1CC/C(COC(=O)NCc1ccc(Cn3c(=O)sn(CCCCC)c3=O)cc1)=C\CC[C@@]1(C)O[C@@H]21` [BSK-218] yielded a GI50 (SK-MEL-28) of 1850 nM, a GI50 (MALME-3M) of 1610 nM and a GI50 (T-47D) of 1750 nM. The GI50 (SW-620) was 1310 nM, the GI50 (MDA-MB-435) was 1710 nM and the GI50 (A498) was 2.91 µM. The GI50 (IGROV1) was 2110 nM, the GI50 (UO-31) was 1460 nM and the GI50 (OVCAR-8) was 2260 nM. It also gave a GI50 (PC-3) of 1.92 µM, a GI50 (MDA-MB-468) of 1190 nM and a GI50 (MCF7) of 1790 nM. For the same compound, the GI50 (UACC-62) was 1590 nM, the GI50 (RPMI-8226) was 1120 nM and the “LD50, 7AAD (μM) 24 h” value [1] was 1.3 µM. The “LD50, Alamar blue (μM) 24 h” value [1] was 0.8 µM, the “LD50, YOPRO (μM) 24 h” value [1] was 1.07 µM and the LD50 ([1]; values in text) was 760 nM. It also gave a GI50 (NCI-H23) of 1940 nM, a GI50 (HS 578T) of 2.79 µM and a GI50 (SK-MEL-5) of 3920 nM. For the same compound, the GI50 (SNB-75) was 1.59 µM, the GI50 (SF-539) was 1640 nM and the GI50 (OVCAR-5) was 2010 nM. It also gave a GI50 (M14) of 1890 nM, a GI50 (CCRF-CEM) of 360 nM and a GI50 (NCI-H460) of 3.42 µM. For the same compound, the GI50 (OVCAR-4) was 1620 nM, the GI50 (U251) was 2.2 µM and the GI50 (OVCAR-3) was 1410 nM. It also gave a GI50 (DU-145) of 1680 nM, a GI50 (EKVX) of 1850 nM and a GI50 (MOLT-4) of 5.9 µM. It also gave a GI50 (LOX IMVI) of 1590 nM, a GI50 (SF-268) of 1880 nM and a GI50 (HCT-116) of 1730 nM. It also gave a GI50 (ACHN) of 1680 nM, a GI50 (UACC-257) of 1570 nM and a GI50 (HT29) of 2090 nM. The GI50 (CAKI-1) was 2840 nM, the GI50 (NCI-H522) was 1590 nM and the GI50 (SR) was 2990 nM. The GI50 (COLO 205) was 1780 nM, the GI50 (SN12C) was 1710 nM and the GI50 (SK-MEL-2) was 2.42 µM. It also gave a GI50 (HOP-92) of 1380 nM, a GI50 (HL-60(TB)) of 1100 nM and a GI50 (786-0) of 1980 nM. For the same compound, the GI50 (MDA-MB-231/ATCC) was 1720 nM, the GI50 (HCT-15) was 1660 nM and the GI50 (TK-10) was 1960 nM. It also gave a GI50 (BT-549) of 1910 nM and a GI50 (SNB-19) of 5.06 µM.
With `C=C1C(=O)O[C@H]2[C@H]1CC/C(COC(=O)NCc1ccc(Cn3c(=O)sn(CCCl)c3=O)cc1)=C\CC[C@@]1(C)O[C@@H]21` [BSK-140] the GI50 (SK-MEL-28) was 1740 nM, the GI50 (RXF 393) was 1180 nM and the GI50 (MALME-3M) was 1720 nM. It also gave a GI50 (T-47D) of 1970 nM, a GI50 (SW-620) of 1170 nM and a GI50 (MDA-MB-435) of 1740 nM. For the same compound, the GI50 (A498) was 11.5 µM, the GI50 (IGROV1) was 2500 nM and the GI50 (UO-31) was 1650 nM. It also gave a GI50 (OVCAR-8) of 2040 nM, a GI50 (PC-3) of 8.09 µM and a GI50 (MDA-MB-468) of 1780 nM. For the same compound, the GI50 (MCF7) was 1910 nM, the GI50 (UACC-62) was 1860 nM and the GI50 (RPMI-8226) was 2370 nM. The “LD50, 7AAD (μM) 24 h” value [1] was 4.42 µM, the “LD50, Alamar blue (μM) 24 h” value [1] was 1.50 µM and the “LD50, YOPRO (μM) 24 h” value [1] was 2.88 µM. The GI50 (NCI-H23) was 2180 nM, the GI50 (HS 578T) was 12.1 µM and the GI50 (SK-MEL-5) was 1700 nM. It also gave a GI50 (SNB-75) of 7.65 µM, a GI50 (SF-539) of 1820 nM and a GI50 (OVCAR-5) of 1970 nM. It also gave a GI50 (M14) of 1820 nM, a GI50 (CCRF-CEM) of 1730 nM and a GI50 (NCI-H460) of 5.1 µM. The GI50 (OVCAR-4) was 1920 nM, the GI50 (U251) was 6.79 µM and the GI50 (OVCAR-3) was 1530 nM. The GI50 (DU-145) was 1720 nM, the GI50 (EKVX) was 1990 nM and the GI50 (MOLT-4) was 1.85 µM. For the same compound, the GI50 (LOX IMVI) was 1690 nM, the GI50 (SF-268) was 3730 nM and the GI50 (HCT-116) was 1620 nM. The GI50 (ACHN) was 1540 nM, the GI50 (UACC-257) was 1850 nM and the GI50 (HT29) was 2160 nM. The GI50 (CAKI-1) was 1760 nM, the GI50 (NCI-H522) was 1380 nM and the GI50 (SR) was 1480 nM. The GI50 (K-562) was 2070 nM, the GI50 (COLO 205) was 1840 nM and the GI50 (SN12C) was 2010 nM. For the same compound, the GI50 (SK-MEL-2) was 10.6 µM, the GI50 (HOP-92) was 1500 nM and the GI50 (HL-60(TB)) was 1910 nM. It also gave a GI50 (786-0) of 1790 nM, a GI50 (MDA-MB-231/ATCC) of 1890 nM and a GI50 (HCT-15) of 1850 nM. For the same compound, the GI50 (TK-10) was 1770 nM, the GI50 (BT-549) was 1450 nM and the GI50 (SNB-19) was 11.9 µM.
